Patent publication US11214803B2, “Modulators of YAP1 expression” (Ionis Pharmaceuticals, Inc., priority 2019, dated 2022)
Marks after values point to notes of the source that are not given here. Strand notation (5' to 3'): a small letter for the sugar, then the base; units joined by * are phosphorothioate-linked, units joined directly phosphodiester-linked; [ ] holds rarer units or linkages, { } end groups; capitals alone tell only the bases. k = constrained ethyl (cEt); [5mC] = 5-methylcytosine; d = 2'-deoxy (DNA)

Tested on: Yap1 mRNA
Assay: Antisense inhibition of human Yap1 in A-431 cells by cEt gapmers, single dose (Example 4, RTS4814)
Type: cell-based
Conditions: Table 14; A-431 cells, 5,000 cells per well, free uptake, 2,000 nM, approximately 48 hours; RTS4814; normalized to RIBOGREEN; Yap1 mRNA relative to untreated control; * = targets amplicon region of primer probe set
Procedure, shortened: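 Values are % UTC: Yap1 mRNA by quantitative RT-PCR, normalized to RIBOGREEN total RNA. Cells were exposed ~48 h to 2,000 nM oligonucleotide without transfection. Oligonucleotides were 16-nucleoside gapmers with three cEt nucleosides per wing, ten-deoxy gap, P=S linkages throughout.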

Substance	YAP1 (% UTC)
1075360 (kA*kG*kG*d[5mC]*dA*dA*d[5mC]*dA*dA*d[5mC]*dA*dT*d[5mC]*kT*kA*kA; antisense) [Compound 1075360]	50
1075872 (k[5mC]*kA*kA*dT*dT*dA*dT*dG*dA*d[5mC]*dA*dA*dA*k[5mC]*kA*kG; antisense) [Compound 1075872]	21
1076128 (kT*k[5mC]*kT*dA*dA*dA*d[5mC]*d[5mC]*dT*dA*dA*dA*dG*kA*k[5mC]*kT; antisense) [Compound 1076128]	118
1076192 (k[5mC]*kT*kA*d[5mC]*dA*dA*d[5mC]*d[5mC]*dT*dG*dG*dA*d[5mC]*kT*kT*kT; antisense) [Compound 1076192]	34
1074944 (antisense kA*kA*kA*dA*d[5mC]*d[5mC]*d[5mC]*dT*dT*dT*dG*dG*dT*k[5mC]*kT*k[5mC]) [Compound 1074944]	89
1075456 (antisense kT*kT*kA*d[5mC]*dG*dA*dA*dA*dT*dG*dT*dT*dT*kA*kG*kT) [Compound 1075456]	61
1074720 (antisense kG*kA*kA*dG*dA*dT*d[5mC]*dT*d[5mC]*d[5mC]*dA*dT*dA*kT*kT*k[5mC]) [Compound 1074720]	58

Same assay, conditions: Table 15; A-431 cells, 5,000 cells per well, free uptake, 2,000 nM, approximately 48 hours; RTS4814; normalized to RIBOGREEN; Yap1 mRNA relative to untreated control; * = targets amplicon region of primer probe set

Substance	YAP1 (% UTC)
1075329 (kA*kG*kG*dG*dA*dA*dA*dA*d[5mC]*dT*dT*dT*dG*k[5mC]*kA*k[5mC]; antisense) [Compound 1075329]	26
1075393 (k[5mC]*kT*kT*dA*dA*d[5mC]*d[5mC]*dT*dA*dT*dG*d[5mC]*d[5mC]*kA*kA*kA; antisense) [Compound 1075393]	37
1075937 (kA*k[5mC]*kT*dT*dA*dT*dA*dT*dT*d[5mC]*dT*d[5mC]*dT*k[5mC]*k[5mC]*kG; antisense) [Compound 1075937]	36
1075265 (antisense kT*k[5mC]*kT*dG*dA*dA*dT*dA*dA*dT*dA*dT*dG*k[5mC]*kA*kG) [Compound 1075265]	44
1074177 (antisense k[5mC]*k[5mC]*kT*d[5mC]*d[5mC]*d[5mC]*d[5mC]*d[5mC]*dG*dA*d[5mC]*dG*d[5mC]*kG*k[5mC]*kA) [Compound 1074177]	69
1075073 (antisense k[5mC]*kA*kT*dA*dA*dA*dA*dG*dT*dT*d[5mC]*d[5mC]*d[5mC]*k[5mC]*kA*kG) [Compound 1075073]	51
1074113 (k[5mC]*kT*k[5mC]*d[5mC]*dA*dA*d[5mC]*dT*d[5mC]*d[5mC]*d[5mC]*dT*dT*kG*kA*k[5mC]; antisense) [Compound 1074113]	61
1075425 (antisense kA*kT*kT*dA*dT*dT*dA*dA*dT*d[5mC]*d[5mC]*dT*dG*kT*k[5mC]*k[5mC]) [Compound 1075425]	26
1074785 (kA*k[5mC]*k[5mC]*dA*dT*dA*dA*dG*dT*dA*dG*dA*dT*k[5mC]*kT*kA; antisense) [Compound 1074785]	10

Same assay, conditions: Table 16; A-431 cells, 5,000 cells per well, free uptake, 2,000 nM, approximately 48 hours; RTS4814; normalized to RIBOGREEN; Yap1 mRNA relative to untreated control cells

Substance	YAP1 (% UTC)
1076290 (k[5mC]*kT*k[5mC]*d[5mC]*dA*dA*d[5mC]*dG*dG*dA*d[5mC]*dA*dA*k[5mC]*kT*kT; antisense) [Compound 1076290]	28
1076322 (kA*kT*kT*dT*dA*d[5mC]*dA*dA*dG*dT*dG*dA*dG*k[5mC]*kA*k[5mC]; antisense) [Compound 1076322]	21
1074690 (antisense k[5mC]*k[5mC]*kT*d[5mC]*d[5mC]*d[5mC]*d[5mC]*d[5mC]*dT*dA*dA*dG*d[5mC]*kT*kA*kA) [Compound 1074690]	81
1075074 (antisense kT*kA*kT*dA*dG*dT*dA*dA*dG*dA*d[5mC]*dT*dA*kA*kT*k[5mC]) [Compound 1075074]	105

Same assay, conditions: Table 17; A-431 cells, 5,000 cells per well, free uptake, 2,000 nM, approximately 48 hours; RTS4814; normalized to RIBOGREEN; Yap1 mRNA relative to untreated control cells

Substance	YAP1 (% UTC)
1075523 (kA*kA*kT*dT*dA*dA*dG*dG*dG*d[5mC]*d[5mC]*d[5mC]*dA*k[5mC]*kA*kA; antisense) [Compound 1075523]	78
1076355 (k[5mC]*kT*kA*d[5mC]*dA*dA*dA*dA*dG*dA*dG*d[5mC]*dT*kA*kT*kG; antisense) [Compound 1076355]	92
1075171 (antisense k[5mC]*k[5mC]*k[5mC]*d[5mC]*dA*dA*dT*dA*dT*dA*dA*dA*dG*kA*kA*k[5mC]) [Compound 1075171]	88
1075715 (kG*kA*kA*dT*dT*dA*d[5mC]*dA*dA*dT*d[5mC]*dA*dA*k[5mC]*k[5mC]*kT; antisense) [Compound 1075715]	12
1074179 (antisense k[5mC]*kG*kG*dG*dA*dT*d[5mC]*d[5mC]*dA*dT*dG*dG*d[5mC]*kT*kT*k[5mC]) [Compound 1074179]	49
1076515 (antisense k[5mC]*kT*kG*d[5mC]*dA*dA*dG*dA*dA*dT*dA*d[5mC]*dT*kT*kT*kA) [Compound 1076515]	30

Same assay, conditions: Yap1 mRNA remaining as percent of untreated control; 3-10-3 cEt gapmers; A-431 cells; Table 36

Substance	YAP1 (% UTC)
1075446 (antisense k[5mC]*kT*kA*dT*dA*dA*dA*dT*d[5mC]*d[5mC]*dT*d[5mC]*dA*kT*kG*kT) [compound 1075446]	87
1074166 (antisense kA*k[5mC]*k[5mC]*d[5mC]*dA*dG*dG*d[5mC]*dG*dA*dG*d[5mC]*dG*kA*kG*kG) [compound 1074166]	72
1074870 (kG*kT*kA*dA*dG*dT*dA*d[5mC]*d[5mC]*dT*dA*dA*d[5mC]*kA*kT*kA; antisense) [compound 1074870]	20
1075702 (kG*kA*kG*dG*dA*dA*dG*dG*dG*d[5mC]*dA*d[5mC]*d[5mC]*kT*kT*kT; antisense) [compound 1075702]	81
1075830 (kG*kA*kT*dG*dA*dA*d[5mC]*dA*d[5mC]*dT*d[5mC]*dA*dA*kT*kA*kG; antisense) [compound 1075830]	12
1076182 (k[5mC]*kT*kA*dT*dA*dA*dT*dT*dA*dG*d[5mC]*d[5mC]*dA*kA*k[5mC]*k[5mC]; antisense) [compound 1076182]	15
1076566 (kA*kA*kT*dT*dA*d[5mC]*dA*dG*dT*dG*dT*d[5mC]*dT*k[5mC]*kA*k[5mC]; antisense) [compound 1076566]	63
1074550 (DNA kA*kT*kA*dT*d[5mC]*dT*dA*d[5mC]*d[5mC]*dG*dT*dA*dT*kG*k[5mC]*k[5mC]; antisense) [compound 1074550]	23
1074806 (kT*kT*kG*dT*dA*dG*d[5mC]*dA*dA*dA*dG*dT*d[5mC]*kA*k[5mC]*kT; antisense) [compound 1074806]	8
1076086 (kA*kA*k[5mC]*dT*dA*dA*dT*dA*dG*dG*d[5mC]*d[5mC]*dA*kT*k[5mC]*kT; antisense) [compound 1076086]	31

Same assay, conditions: Yap1 mRNA remaining as percent of untreated control; 3-10-3 cEt gapmers; A-431 cells; Table 37

Substance	YAP1 (% UTC)
1075063 (antisense kT*kA*k[5mC]*dG*dG*dA*dA*dG*dG*d[5mC]*d[5mC]*dA*dA*k[5mC]*kT*kG) [compound 1075063]	16 % UTC
1074519 (kA*k[5mC]*kT*dA*d[5mC]*dT*dA*dG*dT*d[5mC]*dA*dT*dG*kT*kA*kT; antisense) [compound 1074519]	45 % UTC
1074423 (k[5mC]*kA*kA*dA*d[5mC]*dA*dG*dG*d[5mC]*dT*d[5mC]*dA*d[5mC]*kT*kT*k[5mC]; antisense) [compound 1074423]	4* % UTC
1074743 (kG*kA*kA*dA*dG*dG*dA*d[5mC]*dT*d[5mC]*dT*dT*dA*kG*kG*kT; antisense) [compound 1074743]	16 % UTC
1074199 (antisense kG*k[5mC]*k[5mC]*dG*dG*dT*dT*dG*d[5mC]*d[5mC]*d[5mC]*dG*dG*kG*kT*k[5mC]) [compound 1074199]	101 % UTC
1076407 (antisense kG*kT*kA*dT*dT*dA*dT*dT*dT*dA*dA*dG*dA*k[5mC]*k[5mC]*kT) [compound 1076407]	22 % UTC
1076279 (k[5mC]*kA*kA*dT*dA*dA*dG*dG*dA*d[5mC]*dA*dG*dG*kA*k[5mC]*k[5mC]; antisense) [compound 1076279]	71 % UTC
1075511 (k[5mC]*kA*kA*dT*dA*dT*dT*dA*dT*d[5mC]*dT*dG*dA*kG*k[5mC]*kT; antisense) [compound 1075511]	106 % UTC
1076151 (kT*kA*kT*dT*dT*dA*dT*dT*dA*dA*d[5mC]*dT*d[5mC]*kA*k[5mC]*kG; antisense) [compound 1076151]	14 % UTC
1074135 (k[5mC]*k[5mC]*kG*d[5mC]*dG*dG*d[5mC]*d[5mC]*d[5mC]*d[5mC]*dG*d[5mC]*dA*kT*k[5mC]*k[5mC]; antisense) [compound 1074135]	91 % UTC

Same assay, conditions: table after Table 37, headed TABLE 32 (gapmers targeting SEQ ID NO.: 3); A-431 cells, free uptake, 2,000 nM, approximately 48 hours, RTS4814

Substance	YAP1 (% UTC)
1074883 (kG*kG*k[5mC]*dT*dA*dA*d[5mC]*dT*d[5mC]*d[5mC]*dT*dG*d[5mC]*k[5mC]*kG*kA; antisense) [compound 1074883]	107
1074885 (kA*kG*kG*dG*d[5mC]*dT*dA*dA*d[5mC]*dT*d[5mC]*d[5mC]*dT*kG*k[5mC]*k[5mC]; antisense) [compound 1074885]	115
